Earlier results on one molecule are cited in patent publication US20040115266A1, “Oral itraconazole formulations and methods of making the same” (priority 2004, published 2004).

In the case of `CCC(C)n1ncn(-c2ccc(N3CCN(c4ccc(OCC5COC(Cn6cncn6)(c6ccc(Cl)cc6Cl)O5)cc4)CC3)cc2)c1=O` (single isomer, unassigned; (+)) [Itraconazole, (+)-cis-4-[4-[4-[4-[[2-(2,4-dichlorophenyl)-2-(1H-1,2,4-triazol-1-ylmethyl)-1,3-dioxolan-4-yl]methoxy]phenyl]-1-piperazinyl]phenyl]-2,4-dihydro-2-(1-methylpropyl)-3H-1,2,4-triazol-3-one], the “0.1 N Hydrochloric acid solubility” value (0.1 N Hydrochloric acid) is on record as below 6 micrograms per milliliter. Further, the water solubility entry (water) is recorded as “less than 1 microgram per milliliter”.
